The numbers were not newly measured in patent US6849617B2, “Tissue factor antagonists and methods of use thereof” (Sunol Molecular Corporation, priority 1999, dated 2005), which cites them from elsewhere.

The target of this data set is tissue factor (TF) (Homo sapiens, UniProt P13726). The following applies: as disclosed in U.S. application Ser. No. 09/406269.

Each structure is given as a SMILES string.

Chain of tissue factor (TF) (P13726 33-295): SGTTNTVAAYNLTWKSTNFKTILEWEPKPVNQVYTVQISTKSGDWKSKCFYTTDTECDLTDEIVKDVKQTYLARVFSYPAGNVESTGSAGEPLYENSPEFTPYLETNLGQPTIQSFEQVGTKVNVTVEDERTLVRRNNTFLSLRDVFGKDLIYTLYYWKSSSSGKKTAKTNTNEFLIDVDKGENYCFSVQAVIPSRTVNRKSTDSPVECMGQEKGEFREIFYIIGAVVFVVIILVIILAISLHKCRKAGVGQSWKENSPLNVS

As for `NCCCC(O)(P(=O)(O)O)P(=O)(O)O` [alendronic acid], the TF antagonist activity result was “effective TF antagonist”.
